Results from US20230172209A1, “FUNGICIDAL COMPOSITIONS” (SYNGENTA CROP PROTECTION AG, priority 2020, published 2023).

Columns and labels:
Type in all cases: cell-based
[1] = test system: Septoria glycines; assay: Septoria glycines growth inhibition in liquid culture (microtiter plate, visual)
Source text: A synergistic effect exists whenever the action of an active ingredient combination is greater than the sum of the actions of the individual components. The action to be expected E for a given active ingredient combination obeys the so-called COLBY formula and can be calculated as follows (COLBY, S. R. “Calculating synergistic and antagonistic responses of herbicide combination”. Weeds, Vol. 15, pages 20-22; 1967): • ppm=milligrams of active ingredient (=a.i.) per liter of spray mixture • X=% action by active ingredient A) using p ppm of active ingredient • Y=% action by active ingredient B) using q ppm of active ingredient. According to COLBY, the expected (additive) action of active ingredients A)+B) using p+q ppm of active ingredient is: If the action actually observed (O) is greater than the expected action (E), then the action of the combination is super-additive, i.e. there is a synergistic effect. In mathematical terms, synergism corresponds to a positive value for the difference of (O-E). In the case of purely complementary addition of activities (expected activity), said difference (O-E) is zero. A negative value of said difference (O-E) signals a loss of activity compared to the expected activity. Septoria glycines (Brown Spot): Conidia of the fungus from cryogenic storage were directly mixed into nutrient broth ([…] potato dextrose broth). A DMSO solution of the test compounds was placed into a microtiter plate (96-well format) and the nutrient broth containing the fungal spores was added to it. The test plates were incubated at 24° C. and the inhibition of growth was determined visually after 72 hrs.

[2] = test system: Septoria tritici; assay: Septoria tritici growth inhibition in liquid culture (microtiter plate, photometric)
Source text: A synergistic effect exists whenever the action of an active ingredient combination is greater than the sum of the actions of the individual components. The action to be expected E for a given active ingredient combination obeys the so-called COLBY formula and can be calculated as follows (COLBY, S. R. “Calculating synergistic and antagonistic responses of herbicide combination”. Weeds, Vol. 15, pages 20-22; 1967): • ppm=milligrams of active ingredient (=a.i.) per liter of spray mixture • X=% action by active ingredient A) using p ppm of active ingredient • Y=% action by active ingredient B) using q ppm of active ingredient. According to COLBY, the expected (additive) action of active ingredients A)+B) using p+q ppm of active ingredient is: If the action actually observed (O) is greater than the expected action (E), then the action of the combination is super-additive, i.e. there is a synergistic effect. In mathematical terms, synergism corresponds to a positive value for the difference of (O-E). In the case of purely complementary addition of activities (expected activity), said difference (O-E) is zero. A negative value of said difference (O-E) signals a loss of activity compared to the expected activity. Septoria tritici (Leaf Blotch): Conidia of the fungus from cryogenic storage were directly mixed into nutrient broth (PDB potato dextrose broth). A DMSO solution of the test compounds was placed into a microtiter plate (96-well format) and the nutrient broth containing the fungal spores was added to it. The test plates were incubated at 24° C. and the inhibition of growth was determined photometrically after 72 hrs.

[3] = test system: Corynespora cassiicola; assay: Corynespora cassiicola growth inhibition in liquid culture (microtiter plate, photometric); details: for Observed Activity (%): A-1.3 0 ppm
Source text: A synergistic effect exists whenever the action of an active ingredient combination is greater than the sum of the actions of the individual components. The action to be expected E for a given active ingredient combination obeys the so-called COLBY formula and can be calculated as follows (COLBY, S. R. “Calculating synergistic and antagonistic responses of herbicide combination”. Weeds, Vol. 15, pages 20-22; 1967): • ppm=milligrams of active ingredient (=a.i.) per liter of spray mixture • X=% action by active ingredient A) using p ppm of active ingredient • Y=% action by active ingredient B) using q ppm of active ingredient. According to COLBY, the expected (additive) action of active ingredients A)+B) using p+q ppm of active ingredient is: If the action actually observed (O) is greater than the expected action (E), then the action of the combination is super-additive, i.e. there is a synergistic effect. In mathematical terms, synergism corresponds to a positive value for the difference of (O-E). In the case of purely complementary addition of activities (expected activity), said difference (O-E) is zero. A negative value of said difference (O-E) signals a loss of activity compared to the expected activity. Corynespora cassiicola (Target Spot of Soybean, Target Leaf Spot of Tomato): Conidia of the fungus from cryogenic storage were directly mixed into nutrient broth (PDB potato dextrose broth). A DMSO solution of the test compounds was placed into a microtiter plate (96-well format) and the nutrient broth containing the fungal spores was added to it. The test plates were incubated at 24° C. and the inhibition of growth was determined photometrically after 3-4 days at 620 nm. Rates and results are set out in the following tables: […]

[4] = test system: Mycosphaerella arachidis Syn. Cercospora arachidicola; assay: Mycosphaerella arachidis growth inhibition in liquid culture (microtiter plate, photometric); details: for Observed Activity (%): A-1.3 0 ppm
Source text: A synergistic effect exists whenever the action of an active ingredient combination is greater than the sum of the actions of the individual components. The action to be expected E for a given active ingredient combination obeys the so-called COLBY formula and can be calculated as follows (COLBY, S. R. “Calculating synergistic and antagonistic responses of herbicide combination”. Weeds, Vol. 15, pages 20-22; 1967): • ppm=milligrams of active ingredient (=a.i.) per liter of spray mixture • X=% action by active ingredient A) using p ppm of active ingredient • Y=% action by active ingredient B) using q ppm of active ingredient. According to COLBY, the expected (additive) action of active ingredients A)+B) using p+q ppm of active ingredient is: If the action actually observed (O) is greater than the expected action (E), then the action of the combination is super-additive, i.e. there is a synergistic effect. In mathematical terms, synergism corresponds to a positive value for the difference of (O-E). In the case of purely complementary addition of activities (expected activity), said difference (O-E) is zero. A negative value of said difference (O-E) signals a loss of activity compared to the expected activity. Mycosphaerella arachidis Syn. Cercospora arachidicola (Brown Leaf Spot of Peanut): Conidia of the fungus from cryogenic storage were directly mixed into nutrient broth (PDB potato dextrose broth). A DMSO solution of the test compounds was placed into a microtiter plate (96-well format) and the nutrient broth containing the fungal spores was added to it. The test plates were incubated at 24° C. and the inhibition of growth was determined photometrically after 5-6 days at 620 nm.

COc1c(F)c(F)c(C(=O)NCc2ncc(C(F)(F)F)cc2Cl)c(F)c1F [Fluopimomide]
Observed Activity (%) ([1]; Table 20: A-1.3 0 ppm, Fluopimomide 1.25 ppm): 0%
Observed Activity (%) ([1]; Table 20: A-1.3 0 ppm, Fluopimomide 2.5 ppm): 0%
Observed Activity (%) ([1]; Table 20: A-1.3 0 ppm, Fluopimomide 5 ppm): 0%
Observed Activity (%) ([1]; Table 20: A-1.3 0 ppm, Fluopimomide 10 ppm): 0%
Observed Activity (%) ([1]; Table 20: A-1.3 0 ppm, Fluopimomide 20 ppm): 0%

CNC(=O)C(OC)c1ccccc1COc1cc(C)ccc1C (centres unmarked) [Mandestrobin]
Observed Activity (%) ([1]; Table 17: A-1.3 0 ppm, Mandestrobin 0.125 ppm): 50%
Observed Activity (%) ([1]; Table 17: A-1.3 0 ppm, Mandestrobin 0.25 ppm): 70%
Observed Activity (%) ([1]; Table 17: A-1.3 0 ppm, Mandestrobin 0.5 ppm): 90%
Observed Activity (%) ([1]; Table 18: A-1.3 0 ppm, Mandestrobin 0.25 ppm): 70%
Observed Activity (%) ([1]; Table 18: A-1.3 0 ppm, Mandestrobin 0.5 ppm): 70%
Observed Activity (%) ([1]; Table 18: A-1.3 0 ppm, Mandestrobin 1 ppm): 90%

CN1OC(c2ccc(Cl)cc2)CC1(C)c1cccnc1 (centres unmarked) [Pyrisoxazole]
Observed Activity (%) ([2]; Table 11: A-1.3 0 ppm, Pyrisoxazole 0.25 ppm): 0%
Observed Activity (%) ([2]; Table 11: A-1.3 0 ppm, Pyrisoxazole 0.5 ppm): 20%
Observed Activity (%) ([2]; Table 12: A-1.3 0 ppm, Pyrisoxazole 0.0625 ppm): 0%
Observed Activity (%) ([2]; Table 12: A-1.3 0 ppm, Pyrisoxazole 0.125 ppm): 0%
Observed Activity (%) ([2]; Table 12: A-1.3 0 ppm, Pyrisoxazole 0.25 ppm): 0%
Observed Activity (%) ([2]; Table 12: A-1.3 0 ppm, Pyrisoxazole 0.5 ppm): 70%
Observed Activity (%) ([2]; Table 12: A-1.3 0 ppm, Pyrisoxazole 1 ppm): 90%
Observed Activity (%) ([3]; Pyrisoxazole 0.5 ppm): 20%
Observed Activity (%) ([3]; Pyrisoxazole 1 ppm): 70%

COc1cc(C)c(C(=O)c2c(OC)ncc(Cl)c2C)c(OC)c1OC [Pyriofenone]
Observed Activity (%) ([1]; Table 21: A-1.3 0 ppm, Pyriofenone 1.25 ppm): 20%
Observed Activity (%) ([1]; Table 21: A-1.3 0 ppm, Pyriofenone 2.5 ppm): 20%
Observed Activity (%) ([1]; Table 21: A-1.3 0 ppm, Pyriofenone 5 ppm): 20%
Observed Activity (%) ([1]; Table 21: A-1.3 0 ppm, Pyriofenone 10 ppm): 20%
Observed Activity (%) ([1]; Table 21: A-1.3 0 ppm, Pyriofenone 20 ppm): 20%
Observed Activity (%) ([4]; Pyriofenone 2.5 ppm): 0%
Observed Activity (%) ([4]; Pyriofenone 5 ppm): 0%
Observed Activity (%) ([4]; Pyriofenone 10 ppm): 0%
Observed Activity (%) ([4]; Pyriofenone 20 ppm): 0%

Cc1cccc(-n2nnn(C)c2=O)c1COc1ccn(-c2ccc(Cl)cc2)n1 [Metyltetraprole]
Observed Activity (%) ([1]; Table 19: A-1.3 0 ppm, Metyltetraprole 0.003125 ppm): 50%
Observed Activity (%) ([1]; Table 19: A-1.3 0 ppm, Metyltetraprole 0.00625 ppm): 70%
Observed Activity (%) ([1]; Table 19: A-1.3 0 ppm, Metyltetraprole 0.0125 ppm): 90%
Observed Activity (%) ([1]; Table 23: A-1.3 0 ppm, Metyltetraprole 0.003125 ppm): 20%
Observed Activity (%) ([1]; Table 23: A-1.3 0 ppm, Metyltetraprole 0.00625 ppm): 70%
Observed Activity (%) ([1]; Table 23: A-1.3 0 ppm, Metyltetraprole 0.0125 ppm): 70%
Observed Activity (%) ([1]; Table 23: A-1.3 0 ppm, Metyltetraprole 0.025 ppm): 90%
Observed Activity (%) ([1]; Table 23: A-1.3 0 ppm, Metyltetraprole 0.05 ppm): 90%
Observed Activity (%) ([1]; Table 23: A-1.3 0 ppm, Metyltetraprole 0.1 ppm): 90%

Cc1nc2c(F)c(F)ccc2cc1Oc1cccc(F)c1C(C)(C)O [Ipflufenoquin]
Observed Activity (%) ([1]; Table 16: A-1.3 0 ppm, Ipflufenoquin 0.6125 ppm): 70%
Observed Activity (%) ([1]; Table 16: A-1.3 0 ppm, Ipflufenoquin 1.25 ppm): 90%

O=C(NC1CCC1c1ccc(Cl)cc1Cl)c1cccnc1C(F)(F)F (stereo in doubt) [Cyclobutrifluram]
Observed Activity (%) ([1]; Table 13: A-1.3 0 ppm, Cyclobutrifluram 0.05 ppm): 70%
Observed Activity (%) ([1]; Table 13: A-1.3 0 ppm, Cyclobutrifluram 0.1 ppm): 90%
Observed Activity (%) ([1]; Table 13: A-1.3 0 ppm, Cyclobutrifluram 0.2 ppm): 90%
Observed Activity (%) ([1]; Table 14: A-1.3 0 ppm, Cyclobutrifluram 0.0125 ppm): 20%
Observed Activity (%) ([1]; Table 14: A-1.3 0 ppm, Cyclobutrifluram 0.025 ppm): 50%
Observed Activity (%) ([1]; Table 14: A-1.3 0 ppm, Cyclobutrifluram 0.05 ppm): 70%
Observed Activity (%) ([1]; Table 14: A-1.3 0 ppm, Cyclobutrifluram 0.1 ppm): 70%
Observed Activity (%) ([1]; Table 14: A-1.3 0 ppm, Cyclobutrifluram 0.2 ppm): 90%
Observed Activity (%) ([3]; Cyclobutrifluram 0.0125 ppm): 0%
Observed Activity (%) ([3]; Cyclobutrifluram 0.025 ppm): 20%
Observed Activity (%) ([3]; Cyclobutrifluram 0.05 ppm): 50%

CO/C=C(/C(=O)OC)c1ccccc1CSc1nc2ccccc2s1 [Benzothiostrobin]
Observed Activity (%) ([1]; Table 22: A-1.3 0 ppm, Benzothiostrobin 0.0125 ppm): 50%
Observed Activity (%) ([1]; Table 22: A-1.3 0 ppm, Benzothiostrobin 0.025 ppm): 70%
Observed Activity (%) ([1]; Table 22: A-1.3 0 ppm, Benzothiostrobin 0.05 ppm): 90%
Observed Activity (%) ([1]; Table 22: A-1.3 0 ppm, Benzothiostrobin 0.1 ppm): 90%
Observed Activity (%) ([1]; Table 22: A-1.3 0 ppm, Benzothiostrobin 0.2 ppm): 90%

COC(=O)C(O)(Cn1cncn1)c1ccc(Oc2ccc(Cl)cc2)cc1C(F)(F)F (centres unmarked) [Compound A-1.3, Methyl 2-[4-(4-chlorophenoxy)-2-(trifluoromethyl)phenyl]-2-hydroxy-3-(1,2,4-triazol-1-yl)propanoate]
inhibition at 0.03 ppm ([2]; Zymoseptoria tritici, Table 11: A-1.3 0.03 ppm, Pyrisoxazole 0 ppm, read-out: Observed Activity (%)): 0%
inhibition at 0.06 ppm ([2]; Zymoseptoria tritici, Table 12: A-1.3 0.06 ppm, Pyrisoxazole 0 ppm, read-out: Observed Activity (%)): 70%
inhibition at 0.03 ppm ([1]; Septoria glycines, Table 13: A-1.3 0.03 ppm, Cyclobutrifluram 0 ppm, read-out: Observed Activity (%)): 0%
inhibition at 0.06 ppm ([1]; Septoria glycines, Table 14: A-1.3 0.06 ppm, Cyclobutrifluram 0 ppm, read-out: Observed Activity (%)): 20%
inhibition at 0.03 ppm ([3]; Corynespora cassiicola, A-1.3 0.03 ppm, Cyclobutrifluram 0 ppm, read-out: Observed Activity (%)): 0%
inhibition at 0.2 ppm ([3]; Corynespora cassiicola, A-1.3 0.2 ppm, Pyrisoxazole 0 ppm, read-out: Observed Activity (%)): 20%
inhibition at 0.03 ppm ([4]; Mycosphaerella arachidis, A-1.3 0.03 ppm, Pyriofenone 0 ppm, read-out: Observed Activity (%)): 50%

COc1ccnc(C(=O)N[C@@H](C)C(=O)O[C@@H](C)C(c2ccc(F)cc2)c2ccc(F)cc2)c1OC(C)=O [Florylpicoxamid]
Observed Activity (%) ([1]; Table 15: A-1.3 0 ppm, Florylpicoxamid 0.05 ppm): 70%
Observed Activity (%) ([1]; Table 15: A-1.3 0 ppm, Florylpicoxamid 0.1 ppm): 90%
